Data published in US11198680B2 (BioAxone BioSciences, Inc., priority 2016, dated 2021).
Like-named read-outs stand apart in the source and are kept apart here.

Assays:
ROCK1 [1] = target: T1, ROCK1 (Homo sapiens (Human), UniProt Q13464); assay: Direct filter-binding radiometric kinase assay, IC50 determination; format: biochemical
Method: Variations in ATP concentrations were tested to better understand potential selectivity in ischemic and diseased tissue where ATP concentrations may be low and impact selectivity.
[…] Both services use a direct filter-binding, radiometric kinase assay with slight variation in protocol.
The top concentration tested was 100 μM for both services. Test compounds were prepared in 100% DMSO at 50× final test concentration and were diluted to 1× in the assay with a final DMSO concentration of 2%.
For one assay, the substrate […] (SEQ ID NO:1) (30 μM) was mixed with reaction buffer (Table 4) and the kinase domain from either the ROCK1 or ROCK2 (as indicated in Table 4). Next, the compounds (in DMSO) were delivered into the mixture via acoustic mixing technology (Echo550, nanoliter range) (SelectScience, Waltham, Mass.), and incubated at RT for 20 min. […] Reactions were then spotted onto P81 ion exchange paper followed by scintillation counting.
The reaction was stopped by the addition of 3% phosphoric acid and 10 μL of the reaction was spotted onto P30 filtermat, washed 3 times in 75 mM phosphoric acid and once in methanol prior to scintillation counting.

ROCK2 [2] = target: T2, ROCK2 (Homo sapiens (Human), UniProt O75116); assay: as above; format: biochemical
T2 sequence (O75116 whole entry, species assumed): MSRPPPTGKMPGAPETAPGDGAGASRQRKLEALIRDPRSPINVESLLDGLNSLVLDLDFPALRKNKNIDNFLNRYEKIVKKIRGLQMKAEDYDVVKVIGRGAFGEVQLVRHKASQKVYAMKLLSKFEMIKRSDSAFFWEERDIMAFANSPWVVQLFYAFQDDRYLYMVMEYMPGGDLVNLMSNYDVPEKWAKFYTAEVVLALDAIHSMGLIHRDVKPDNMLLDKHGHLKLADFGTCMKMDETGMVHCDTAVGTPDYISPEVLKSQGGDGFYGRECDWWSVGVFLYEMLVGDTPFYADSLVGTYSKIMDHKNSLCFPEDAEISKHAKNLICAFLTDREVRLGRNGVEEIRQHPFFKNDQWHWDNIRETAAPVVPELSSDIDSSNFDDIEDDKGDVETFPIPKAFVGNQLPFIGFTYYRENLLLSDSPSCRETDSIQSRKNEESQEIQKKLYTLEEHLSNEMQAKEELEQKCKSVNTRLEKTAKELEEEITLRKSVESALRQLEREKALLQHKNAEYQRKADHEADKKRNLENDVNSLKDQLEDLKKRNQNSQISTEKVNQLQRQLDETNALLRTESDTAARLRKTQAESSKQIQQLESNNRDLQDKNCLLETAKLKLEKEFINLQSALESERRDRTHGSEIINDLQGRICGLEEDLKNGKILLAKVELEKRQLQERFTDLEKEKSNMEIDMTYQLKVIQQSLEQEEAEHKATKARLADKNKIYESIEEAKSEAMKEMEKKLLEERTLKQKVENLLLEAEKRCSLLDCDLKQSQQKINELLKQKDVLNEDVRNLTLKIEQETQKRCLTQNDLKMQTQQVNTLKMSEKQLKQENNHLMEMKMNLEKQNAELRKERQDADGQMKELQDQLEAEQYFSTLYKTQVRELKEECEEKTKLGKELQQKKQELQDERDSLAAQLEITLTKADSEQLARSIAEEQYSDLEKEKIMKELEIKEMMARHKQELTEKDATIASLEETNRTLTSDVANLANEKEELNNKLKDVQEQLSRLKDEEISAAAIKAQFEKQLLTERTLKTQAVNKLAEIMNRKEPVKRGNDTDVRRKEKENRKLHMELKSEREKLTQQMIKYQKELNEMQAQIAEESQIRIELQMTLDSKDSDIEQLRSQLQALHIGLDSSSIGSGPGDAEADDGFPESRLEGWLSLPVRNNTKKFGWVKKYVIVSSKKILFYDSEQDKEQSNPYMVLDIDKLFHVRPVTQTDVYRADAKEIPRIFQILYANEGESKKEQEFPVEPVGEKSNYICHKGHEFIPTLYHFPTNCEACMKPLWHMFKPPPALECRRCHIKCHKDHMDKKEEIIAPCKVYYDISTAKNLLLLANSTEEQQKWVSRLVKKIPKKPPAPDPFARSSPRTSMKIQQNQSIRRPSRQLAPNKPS

[3] = test system: Rho/ROCK activity (MLC2 diphosphorylation) in HUVECs; assay: LPA-treated HUVECs, pMLC2 T18/S19 immunoblot; format: cell-based, human; settings: 1-100 μM 1 hr, 20 μM LPA 5 min
Method: (§1) Cell lines were exposed to each dose for 1 hr, and then are stimulated with 20 μM LPA for either 5 min or 1 hr as described below. All experiments were conducted in triplicate and analyzed by two independent assessors blinded to both cell line and treatment.
Cells were subjected to biochemical analysis of diphosphorylated MLC2 (Threonine 18/Serine 19 phosphorylation sites) and cofilin (Serine 9 phosphorylation site) using SDS-PAGE and immunoblotting. Cells were plated in 24-well tissue culture plates coated with 70 μg/ml rat collagen-1 (Corning; Corning, N.Y.), and grown for 2 d to 3 d at 37° C./5% CO2 until confluency. […] Then medium was exchanged for Medium 200 supplemented with 0.1% HSA (Sigma-Aldrich) and 20 μM of LPA (Santa Cruz Biotech; Santa Cruz, Calif.) and incubated for 5 min. After LPA stimulation, proteins were extracted from cells by lysis with RIPA buffer supplemented with HALT complete protease/phosphatase inhibitor (ThermoFisher, Waltham, Mass.), reduced and denatured using Laemmli sample buffer (BioRad, Hercules, Calif.)/beta-mercaptoethanol and subjected to SDS-PAGE.
Denatured samples were electrophoresed in reducing 10% Bis-Tris-gels polyacrylamide gels (Novex; Thermo-Fisher, Waltham, Mass.) and were transferred onto 0.25 μm PVDF membranes (EMD Millipore, Billerica, Mass.). Membranes are probed using amti-pMLC2 T18/S19 (1:500; Cell Signaling, Danvers, Mass.) or anti-pCofilin S9 (1:500, Cell Signaling, Danvers, Mass.) and anti-glyceraldehyde 3-phosphate dehydrogenase loading control (GAPDH, 1:10000; Abcam). Protein levels were detected using chemiluminescence substrate (Super Signal West, ThermoFisher, Waltham, Mass.) and images captured using a FluoroChem SP Imaging System.

HUVEC monolayer = assay: LPA-treated HUVECs, endothelial monolayer integrity; format: cell-based, human; settings: 1 μM or 10 μM, 20 μM LPA 60 min
Method: as §1
To examine HUVEC monolayer integrity, cells were plated on PDL-coated coverslips (Corning) coated with fibronectin, collagen-1 and gelatin. 50,000 cells were seeded on each coverslip situated in a 24-well plate. Cells were grown for 3 days at 37° C./5% CO2. […] The medium was exchanged by Medium 200 supplemented with 0.1% HSA and 20 μM of LPA (Santa Cruz) and incubated for 60 min.
After LPA stimulation, cells were fixed with 4% paraformaldehyde and stained for actin-phalloidin (ThermoFisher, Waltham, Mass.) and V-Cadherin (Cell Signaling, Danvers, Mass.) and mounted on microscope slides. Coverslips were imaged by fluorescence microscopy and the cell free holes in the monolayer are measured using Image J (freeware; https://imagej.nih.gov/ij/).

[4] = test system: Rho/ROCK activity (MLC2 diphosphorylation) in human brain microvascular endothelial cells; assay: LPA-treated hBMVECs, pMLC2 T18/S19 immunoblot; format: cell-based; settings: 20 μM LPA, Example 16, present tense, no data shown
Method: (§2) Cells are exposed to each dose for 1 hr, and are then stimulated with 20 μM LPA for either 5 min or 1 hr as described below. All experiments are conducted in triplicate and analyzed by 2 independent assessors blinded to both cell line and treatment.
Cells are subjected to biochemical analysis of diphosphorylated MLC2 (Threonine 18/Serine 19 phosphorylation sites) and phosphorylated cofilin (Serine 9 phosphorylation site) using SDS-PAGE and immunoblotting. Cells are plated in 24-well tissue culture plates coated with 70 μg/ml rat collagen-1 (Corning) and grown in ENDO-growth media (Neuromics) for 3 days at 37° C./5% CO2 until confluency. […] The medium is exchanged for ENDO basal media supplemented with 1% HSA, 20 μM of LPA (Santa Cruz Biotech; Santa Cruz, Calif.) and the appropriate amount of compound being tested. After 5 min, the medium is aspirated and the cells are briefly washed with 1×PBS. Proteins are extracted from cells by lysis with RIPA buffer supplemented with complete protease/phosphatase inhibitor (HALT, Thermo Fisher Scientific), reduced and denatured using Laemmli sample buffer (BioRad; Hercules, Calif., beta-mercaptoethanol and subjected to SDS-PAGE.
Denatured samples are electrophoresed in reducing 10% Bis-Tris-PA gels (Novex; Thermo-Fisher), and are transferred onto 0.25 μm PVDF membranes (EMD Millipore). Membranes are probed using amti-pMLC2 T18/S19 (1:500; Cell Signaling) or anti-pCofilin (1:500, Cell Signaling S9) and anti-glyceraldehyde 3-phosphate dehydrogenase loading control (GAPDH, 1:10000; Abcam, Cambridge, Mass.). Protein levels are detected using a chemiluminescence substrate (Super Signal West, ThermoFisher) and images are captured using a FluoroChem SP Imaging System.

hBMVEC monolayer = assay: LPA-treated hBMVECs, endothelial monolayer integrity; format: cell-based, human; settings: 1 μM or 10 μM, 20 μM LPA, Example 16, present tense
Method: as §2
To examine hBMVECs monolayer integrity, cells are plated on PDL-coated coverslips (Corning) coated with Fibronectin, Collagen-1 and gelatin. 50,000 cells are seeded on each coverslip situated in a 24-well plate. Cells are grown for 3 days in ENDO-growth media (Neuromics) at 37° C./5% CO2. […] The medium is exchanged for ENDO basal media supplemented with 1% HSA, 20 μM of LPA (Santa Cruz Biotech; Santa Cruz, Calif.) and the appropriate amount of compound being tested. After 60 min, cells were fixed with 4% paraformaldehyde and stained for actin-phalloidin (ThermoFisher) and V-Cadherin (Cell Signaling), and then were mounted on microscope slides. Coverslips were imaged by fluorescence microscopy and the cell-free holes in the monolayer are measured using Image J. 3.

ROCK1 [5] = target: T1, ROCK1
Method: (§3) The assay is performed by combining the DNA-tagged kinase, immobilized ligand, and a test compound. The ability of the test compound to compete with the immobilized ligand is measured via quantitative PCR of the DNA tag.
(§4) The highest concentration tested was 30 μM.

ROCK2 [6] = target: T2, ROCK2; settings: for Fold-Difference: ROCK1 KD vs ROCK2 KD
Method: as §3, §4

ROCK2 [7] = target: T2, ROCK2; assay: ROCK2 inhibition curves, MYPT1 substrate plate assay; format: biochemical; settings: purified ROCK2, MYPT1 substrate
Method: Each compound was dissolved at 100 mM in DMSO. This compound-DMSO solution is diluted to 500 μM in dH2O. Serial dilutions were prepared so that a semi-log range of compound is present after being diluted 5× in other assay reagents, from 100 μM through 1 nM.
10 μL of each concentration of each compound was added in duplicate to individual wells of a 96-well Maxisorp plate (ThermoFisher) pre-coated with the ROCK2 substrate MYPT1 (ThermoFisher). dH2O is added as a negative control.
Using a multichannel pipettor, […] of final volume per well was made by the addition of the following of each solution to begin the reaction: 10 μL 20 mM MOPS pH 7.2, 25 mM β-glycerophosphate, 5 mM EGTA, 1 mM Na3VO4, and 1 mM DTT, 10 μL 50 μM ATP, 10 μL 75 mM MgCl2, and 10 μL 1 mU/μL ROCK2 solution. […]
100 μL TMB/E solution was added to each well with a multichannel pipette. Upon sufficient color development, the reaction was stopped using 100 μL stop solution and absorbance read using a Wallac Victor2 plate reader at 450 nm.
Because absorbance values proportional to ROCK2 activity, plotting absorbance at 450 nm versus final concentration of metabolite and parent compound provides inhibition curves. Relative inhibitory profiles were determined through 4PL analysis of these curves. Variations in calculated IC50 are common before assay optimization due to variations in experimental variables.

[8] = test system: ROCK2 activation (phospho-cofilin); assay: Transient MCAO stroke model, phospho-cofilin Western blot left versus right brain; format: in vivo, mouse; settings: 10 mg/kg I.P. within 30 min after MCAO, tissue 24 hr post MCAO
Method: The murine intraluminal monofilament model of middle cerebral artery occlusion (MCAO) is used on mice in this study. MCAO involves the insertion of a surgical filament into the external carotid artery and threading it forward into the internal carotid artery until the tip occludes the origin of the MCA, resulting in a cessation of blood flow and subsequent brain infarction in the MCA territory. The technique is used herein to model transient occlusion. If the filament is removed after 1 h, reperfusion is achieved (transient MCAO). This study determines the most efficacious dose and route of administration that reduce Rho-kinase 2 (ROCK2) activation following transient MCAO-induced stroke in mice. The pharmacodynamic response is also determined in this study.
Twenty-eight 9-wk old C57BL/6 (Charles River Laboratories) were used in this study. For surgery, the mouse was placed in a supine position on an infrared heating pad. The fur over the ventral neck was shaved and the skin was disinfected with 70% ethanol and povidone iodine. Under a stereo dissecting microscope, a 1 cm midline incision was made on the neck and retractors were used to expose the left common carotid artery (CCA), the external carotid artery (ECA) and the internal carotid artery (ICA). The arteries were carefully dissected to free them from surrounding nerves and fascia. The ECA was dissected further distally and two 8-0 silk sutures are tied around the ECA stump and a vascular clamp was applied at the bifurcation of the CCA into the ECA and ICA. A small incision was made at the end of ECA stump with Vannas-style spring scissors. A blunt 5-0 monofilament suture (Doccol) was inserted into the incision and advanced from the lumen of the ECA into the ICA for a distance of 9-10 mm beyond the bifurcation of CCA to occlude the origin of MCA. For the mouse model, a distance of 9 mm-11 mm rostral to the CCA bifurcation is inserted. After 60 min., the monofilament was removed. The incision was sutured with 4.0 prolene sutures. […] The mouse is allowed to recover on a heating pad until thermoregulation is re-established.
For Western blot analysis, mice were anesthetized using isoflurane and decapitated. […]
20 μL protease inhibitor (Halt, Protease, Fisher Scientific, Pittsburgh, Pa.) and 10 μL phosphatase inhibitor (Fisher Scientific) were added to 1 mL RIPA buffer (Santa Cruz Biotechnology, Dallas, Tex.). […] The protein concentration of each sample was determined using the DC Protein Assay Kit and following the manufacturer's instructions.
The left and right hemispheres of each brain were homogenized and prepared for Western blotting, and the signal of phospho-cofilin was measured quantitatively by densitometry compared to an internal standard, cyclophilin. […]

phospho-MLC2 (Ser19) = assay: Transient MCAO stroke model, phospho-MLC2 (Ser19) immunohistochemistry of insular cortex; format: in vivo, mouse; settings: 10 mg/kg I.P.
Method: For immunohistochemistry, mice were anesthetized using isoflurane and perfused intracardially using paraformaldehyde (4% PFA), brain and weights were recorded. Brain specimens from fixed animals were frozen in OCT and sectioned using a cryostat.
Frozen tissue sections embedded in OCT were analyzed by immunohistochemistry. The left side of the brain slice contains ischemic tissue due to the MCAO while the right hemisphere acts as a control without ischemia. Staining with these antibodies provide biomarkers for both ischemic area and ROCK2 activation.

[9] = target: NET (norepinephrine transporter) (Homo sapiens (Human), UniProt P23975); settings: Sturdivant et al., ibid.; cited from earlier work
[10] = target: SERT (serotonin transporter) (Homo sapiens (Human), UniProt P31645); settings: Sturdivant et al., ibid.; cited from earlier work
[11] = test system: human umbilical vein endothelial cells (HUVECs); assay: LPA-stimulated HUVECs, actin stress fibers and vinculin; format: cell-based; settings: 50 μM, 20 μM LPA 10 min
Method: Primary HUVEC cells (Gibco®, Thermo Fisher, Waltham, Mass.) are cultured in endothelial growth media (Gibco® Medium 200 basal media Cat supplemented with Gibco® Large Vessel Endothelial Supplement). HUVECs between passage 1 and 4 are used for all experiments. HUVECs are cultured on poly-D-lysine-treated glass coverslips (Corning, Corning, N.Y.) coated with 70 μg/ml rat collagen I (Corning, Corning, N.Y.) and cultured for 4 d until a confluent monolayer of cells is established. […] Then HUVECs are stimulated with 20 μM LPA for 10 min and subsequently fixed using 4% paraformaldehyde (PFA)/sucrose solution.
After PFA fixation, cells on coverslips are permeabilized with TBS-Triton-X100 (0.1%), blocked with 1% bovine serum albumin and incubated with mouse vinculin primary antibody (Table 16). Vinculin immunolabelling is visualized using a secondary anti-mouse fluorescent antibody (Table 16). Actin cytoskeleton is visualized by staining with fluorescent phalloidin (Table 16), a compound that specifically binds F-actin filaments. Epifluorescence microscopy is used to acquire images of Immuno- and phalloidin fluorescence, respectively.

[12] = read-out: Compound IC50 ROCK1 10 μM ATP, CRO Eurofins, 10 μM ATP
[13] = read-out: Compound IC50 ROCK2 10 μM ATP, CRO Eurofins, 10 μM ATP

T1 sequence (Q13464 2-1354 limits assumed): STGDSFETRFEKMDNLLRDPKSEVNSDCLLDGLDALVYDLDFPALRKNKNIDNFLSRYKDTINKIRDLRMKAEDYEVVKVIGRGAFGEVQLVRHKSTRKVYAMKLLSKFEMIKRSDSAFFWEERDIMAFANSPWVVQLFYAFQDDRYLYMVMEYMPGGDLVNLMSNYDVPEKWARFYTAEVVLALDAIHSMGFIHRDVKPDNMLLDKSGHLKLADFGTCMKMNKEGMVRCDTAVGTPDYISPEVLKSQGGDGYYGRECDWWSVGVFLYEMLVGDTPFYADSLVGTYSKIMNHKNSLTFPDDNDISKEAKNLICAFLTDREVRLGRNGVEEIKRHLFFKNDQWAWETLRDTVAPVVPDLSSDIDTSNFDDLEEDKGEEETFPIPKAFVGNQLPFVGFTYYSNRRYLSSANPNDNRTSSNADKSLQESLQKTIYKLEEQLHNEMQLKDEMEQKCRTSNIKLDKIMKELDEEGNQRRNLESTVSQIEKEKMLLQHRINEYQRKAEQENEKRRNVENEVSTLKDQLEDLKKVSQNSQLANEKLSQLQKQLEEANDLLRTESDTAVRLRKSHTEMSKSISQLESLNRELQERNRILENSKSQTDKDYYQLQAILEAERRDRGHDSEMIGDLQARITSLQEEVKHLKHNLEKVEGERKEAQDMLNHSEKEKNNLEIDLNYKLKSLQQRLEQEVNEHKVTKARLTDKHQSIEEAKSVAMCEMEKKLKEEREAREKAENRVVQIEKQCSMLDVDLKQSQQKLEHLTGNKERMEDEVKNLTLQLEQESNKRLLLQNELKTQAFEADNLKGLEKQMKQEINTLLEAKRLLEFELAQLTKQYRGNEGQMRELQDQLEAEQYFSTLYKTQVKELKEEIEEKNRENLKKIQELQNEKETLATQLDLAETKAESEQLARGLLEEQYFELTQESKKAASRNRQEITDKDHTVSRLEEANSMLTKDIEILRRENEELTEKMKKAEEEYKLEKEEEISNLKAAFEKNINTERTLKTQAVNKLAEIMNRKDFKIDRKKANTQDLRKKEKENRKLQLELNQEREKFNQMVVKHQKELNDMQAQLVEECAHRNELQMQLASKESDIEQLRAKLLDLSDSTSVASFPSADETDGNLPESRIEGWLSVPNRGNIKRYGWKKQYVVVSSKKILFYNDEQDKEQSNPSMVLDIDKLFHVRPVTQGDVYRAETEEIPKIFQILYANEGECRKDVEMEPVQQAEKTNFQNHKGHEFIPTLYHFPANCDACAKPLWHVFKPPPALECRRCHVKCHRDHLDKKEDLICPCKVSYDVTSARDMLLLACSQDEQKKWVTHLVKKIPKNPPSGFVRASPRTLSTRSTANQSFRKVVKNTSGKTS

`C[C@H](N)C1CCN(S(=O)(=O)c2cccc3cnccc23)CC1` gave an IC50 (ROCK1 [1]; 10 μM ATP, Table 2, read-out: Compound IC50 ROCK1) of 10200 nM, an IC50 (ROCK1 [1]; [12]) of 10200 nM and an IC50 (ROCK1 [1]; read-out: Compound IC50 ROCK1 10 μM ATP, CRO Reaction Biology, 10 μM ATP) of 1440 nM. The IC50 (ROCK1 [1]; read-out: Compound IC50 ROCK1 70 μM ATP, Km ATP 70 μM, Table 3) was 57900 nM, the IC50 (ROCK1 [1]; read-out: Compound IC50 ROCK1 70 μM ATP, Km ATP 70 μM, Table 7) was 57900 nM and the IC50 (ROCK2 [2]; 10 μM ATP, Table 2, read-out: Compound IC50 ROCK2) was 730 nM. The Fold-Difference (ROCK2 [2]; CRO Eurofins, 10 μM ATP) was 14.1, the Fold-Difference (ROCK2 [2]; CRO Reaction Biology, 10 μM ATP) was 2.0 and the Fold-Difference (ROCK2 [2]; ROCK1 (70 μM ATP) vs ROCK2 (15 μM ATP) IC50) was 57.9. It also gave a Fold-Difference (ROCK2 [2]; ROCK1 vs ROCK2 IC50, 10 μM ATP) of 14.1, an IC50 (ROCK2 [2]; [13]) of 730 nM and an IC50 (ROCK2 [2]; read-out: Compound IC50 ROCK2 10 μM ATP, CRO Reaction Biology, 10 μM ATP) of 720 nM. For the same compound, the IC50 (ROCK2 [2]; read-out: Compound IC50 ROCK2 15 μM ATP, Km ATP 15 μM, Table 3) was 1000 nM, the IC50 (ROCK2 [2]; read-out: Compound IC50 ROCK2 15 μM ATP, Km ATP 15 μM, Table 7) was 1000 nM and the “effect on MLC2 diphosphorylation (pMLC2 T18/S19)” value (shortened to “effect on MLC2 diphosphorylation”) [3] was “reduce MLC2 diphosphorylation”. For the same compound, the “monolayer integrity after LPA” value (HUVEC monolayer) was “neither concentration reverses the effect of LPA”, the “effect on MLC2 diphosphorylation” value [4] was “reduce MLC2 diphosphorylation” and the “monolayer integrity / Rho/ROCK activation after LPA” value (hBMVEC monolayer) was “neither concentration reverses the effect of LPA”. It also gave a Kd (ROCK1 [5]; read-out: ROCK1 KD, average of duplicate determinations, Table 5) of 155 nM, a Kd (ROCK1 [5]; read-out: ROCK1 Kd, Table 1) of 120 nM and a Fold-Difference (ROCK2 [6]; Table 5) of 0.9. For the same compound, the “Fractional Selectivity for ROCK2” value (ROCK2 [6]; ratio of dissociation constants ROCK1/ROCK2) was 0.92, the Kd (ROCK2 [6]; read-out: ROCK2 KD, average of duplicate determinations, Table 5) was 160 nM and the Kd (ROCK2 [6]; read-out: ROCK2 Kd, Table 1) was 130 nM.

For `C[C@@H](N)C1CCN(S(=O)(=O)c2cccc3c[n+]([O-])ccc23)CC1` [N-oxide-BA-1049 (R)], the “inhibitory activity for ROCK2 relative to parent BA-1049 (R)” value (ROCK2 [7]) was “does not exhibit any inhibitory activity”, the “effect on MLC2 diphosphorylation” value [3] was “did not show such an effect” and the “effect on MLC2 diphosphorylation” value [4] was “do not show such an effect”.

`CC(N)C1CCN(S(=O)(=O)c2cccc3cnccc23)CC1` (racemic) [BA-1049] showed an IC50 (ROCK1 [1]; [12]) of 6800 nM, an IC50 (ROCK1 [1]; read-out: Compound IC50 ROCK1 10 μM ATP, CRO Reaction Biology, 10 μM ATP, listed as Racemic BA-1049: Lot 1) of 1280 nM and an IC50 (ROCK1 [1]; read-out: Compound IC50 ROCK1 10 μM ATP, CRO Reaction Biology, 10 μM ATP, listed as Racemic BA-1049: Lot 2) of 1020 nM. For the same compound, the IC50 (ROCK1 [1]; read-out: Compound IC50 ROCK1 10 μM ATP, CRO Upstate Cell Signaling, 10 μM ATP) was 10200 nM, the Fold-Difference (ROCK2 [2]; CRO Eurofins, 10 μM ATP) was 12.4 and the Fold-Difference (ROCK2 [2]; CRO Reaction Biology, 10 μM ATP, listed as Racemic BA-1049: Lot 1) was 2.1. It also gave a Fold-Difference (ROCK2 [2]; CRO Reaction Biology, 10 μM ATP, listed as Racemic BA-1049: Lot 2) of 2.8, a Fold-Difference (ROCK2 [2]; CRO Upstate Cell Signaling, 10 μM ATP) of 12.8 and an IC50 (ROCK2 [2]; [13]) of 550 nM. For the same compound, the IC50 (ROCK2 [2]; read-out: Compound IC50 ROCK2 10 μM ATP, CRO Reaction Biology, 10 μM ATP, listed as Racemic BA-1049: Lot 1) was 600 nM, the IC50 (ROCK2 [2]; read-out: Compound IC50 ROCK2 10 μM ATP, CRO Reaction Biology, 10 μM ATP, listed as Racemic BA-1049: Lot 2) was 1020 nM and the IC50 (ROCK2 [2]; read-out: Compound IC50 ROCK2 10 μM ATP, CRO Upstate Cell Signaling, 10 μM ATP) was 800 nM. For the same compound, the “ratio of phospho-cofilin expression left (MCAO) versus right hemisphere” value [8] was “strongly reduced”, the “phospho-MLC2 (Ser19) staining of small blood vessels of insular cortex” value (phospho-MLC2 (Ser19)) was “even more effective than Fasudil at reducing small vessel staining” and the Kd (ROCK1 [5]; read-out: ROCK1 KD, average of duplicate determinations, Table 5, listed as Racemic BA-1049: Lot 1) was 54 nM. For the same compound, the Kd (ROCK1 [5]; read-out: ROCK1 KD, average of duplicate determinations, Table 5, listed as Racemic BA-1049: Lot 2) was 89 nM, the Fold-Difference (ROCK2 [6]; Table 5, listed as Racemic BA-1049: Lot 1) was 1.2 and the Fold-Difference (ROCK2 [6]; Table 5, listed as Racemic BA-1049: Lot 2) was 1.3. The Kd (ROCK2 [6]; read-out: ROCK2 KD, average of duplicate determinations, Table 5, listed as Racemic BA-1049: Lot 1) was 46 nM and the Kd (ROCK2 [6]; read-out: ROCK2 KD, average of duplicate determinations, Table 5, listed as Racemic BA-1049: Lot 2) was 66 nM.

In the case of `Cc1ccc(C(=O)OCc2ccc([C@@H](CN)C(=O)Nc3ccc4cnccc4c3)cc2)c(C)c1` [AR-13324], the “% Inhibition of Neurotransmitter Transporter Activity, NET” value [9] is listed as 96% and the “% Inhibition of Neurotransmitter Transporter Activity, SERT” value [10] is listed as 94%.

With `O=S(=O)(c1cccc2cnccc12)N1CCCNCC1` [Fasudil] the “phospho-MLC2 (Ser19) staining of small blood vessels of insular cortex” value (phospho-MLC2 (Ser19)) was “reduces the amount of staining”, the “actin stress fiber formation upon LPA stimulation” value [11] was “prevents such formation of stress fiber” and the “vinculin immunofluorescence, integrity of HUVEC monolayer upon LPA stimulation” value [11] was “upregulation of vinculin-positive focal adhesion complexes associated with a decreased cell confluency”.
